# From US9023821B2, “Use of MicroRNA for treating diseases associated with a dysfunction of the cilia in multiciliated epithelial cells” (Centre National de la Recherche Scientifique, priority 2009, dated 2015)
# {Chol} = cholesterol
# Key:
# HAEC cells [1] = experiment: Ciliogenesis of HAEC cells under blocking of the Notch signalling pathway; format: cell-based, human; conditions: 10 μM
# HAEC cells [2] = experiment: Ciliogenesis of HAEC cells treated with antagomir during regeneration (tubulin-β4 positive cells); format: cell-based, human; conditions: number of ciliated HAEC cells at stage ALI-D21, n=6, P<0.001
# Description: (a,b) the HEAC cells are treated several times with anti-miR-449 antagomirs or a control antagomir (20 nM) during their regeneration (generally 21 days). The percentage of ciliated cells was defined as the ratio of the number of cells positive to +tubulin-β4 relative to the number of nuclei (20 fields/filter and 3 filters/donor). […] The histogram indicates the percentage of ciliated cells per field for each experimental condition (n=6, ***, P<0.001, Student test).
# Six independent cultures of HAEC cells were transfected with an oligonucleotide directed against the miR-449s and conjugated with a cholesterol molecule; ciliogenesis was evaluated during the regeneration time.
# These tests use an antisense oligonucleotide of miR-449a (antagomir) bound at 3′ by a 2′-O-methyl bond to a molecule of cholesterol and with the sequence: 5′-ascscsagcuaacaauacacugcscsa-Chol-3′ (SEQ. ID. No. 207) (the phosphorothioate bonds are indicated by the subscript J (obtained according to Eurogentec (Seraing, Belgium).
# The antagomir (100 μM) was preincubated in fetal calf serum (FCS) for 30 min RT. Then the antagomir-FCS mixture in a differentiation medium (20 μM of antagomir) is added on the apical face of the primary HAEC cells. After 2 h at 37° C., the mixture is withdrawn to restore the air-liquid interface. […]
# miR-449 = experiment: Expression of miRNAs in HAEC cells treated with antagomir; format: cell-based, human
# [3] = system: basal cells and pyramidal cells of the airway epithelium; experiment: miRNA expression in sorted basal cells versus pyramidal cells (ciliated + secretory), HTS and Agilent chips; parameters: species or system human
# Summary of the method: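 FACS on CD151 and tissue factor: double-positive = basal, double-negative = ciliated + mucus cells; DAPI, doublets, aggregates excluded; sort at 5000 events/s. Purity checked by cytometry/immunocytochemistry. miRNA by Agilent array or HTS on total RNA. Source: nasal polyps/conchae, 3 donors.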
# [4] = system: human airway epithelial cells (HAECs); experiment: High-throughput sequencing (HTS) of miRNAs at four stages of differentiation of HAECs
# Summary of the method: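 ALI cultures sampled at day 0, day 7, first-cilia stage (~14 d) and full differentiation (~21 d). Trizol lysis, column purification retaining small RNAs. Adaptor ligation, RT at 42° C for 30 min, PCR, gel selection of ~105-150 base products.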
# [5] = system: human airway epithelial cells (HAECs); experiment: Agilent miRNA chips, miRNA expression at four stages of differentiation of HAECs
# Summary of the method: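 Patient RNA samples, the same ones analysed by high-throughput sequencing, were first labelled, then hybridized onto arrays carrying 866 human and 89 human viral miRNAs (miRBase v.12.0), following the supplied labelling and hybridization protocol.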
compound,measurement,setting,value
C[C@H](NC(=O)Cc1cc(F)cc(F)c1)C(=O)N[C@H](C(=O)OC(C)(C)C)c1ccccc1 [DCT],ciliogenesis during regeneration of the HAEC cells,HAEC cells [1],potentiates ciliogenesis significantly
"anti-miR-449 antagomir: antisense oligonucleotide of miR-449a bound at 3′ to cholesterol, 5′-ascscsagcuaacaauacacugcscsa-Chol-3′ (SEQ. ID. No. 207) (antisense ACCAGCUAACAAUACACUGCCA; linkages s3 o16 s2 (s phosphorothioate, o phosphodiester), 3' {Chol}, sugars by position and methylation of C not given here; further chemistry not fully specified; listed as Homo sapiens)",mean value of inhibition of ciliogenesis,HAEC cells [2],2.3±0.3
same,expression of miR449a,miR-449; n=6,suppresses
same,expression of miR-21,miR-449; n=6,no effect
same,expression of miR-449b,miR-449; n=6,suppresses
same,expression of miR-449,miR-449; stage ALI-D21,reduction of the same order
"hsa-miR-939: human miRNA, SEQ ID No. 50 (UGGGGAGCUGAGGCUCUGGGGGUG; expressed or natural sequence; listed as Homo sapiens)",Modulation of expression of the miRNAs in pyramidal cells (323(−)) relative to basal cells 323(+),[3]; HTS and Agilent chips,1.28
same,Intensity of the level of expression in log2 in basal cells (323(+)),[3]; basal cells,4.81 log2
same,Intensity of the level of expression in log2 in pyramidal cells (323(−)),[3]; pyramidal cells (ciliated + secretory),6.08 log2
same,"Modulation (ratio of the level of intensity of expression in log2 in two stages of differentiation) measured by high-throughput sequencing, D7 − D0","[4]; D7 − D0, Table VI",0.13 log2
same,"Modulation (ratio of the level of intensity of expression in log2 in two stages of differentiation) measured by high-throughput sequencing, FC − D7","[4]; FC − D7, Table VI",−0.13 log2
same,"Modulation (ratio of the level of intensity of expression in log2 in two stages of differentiation) measured by high-throughput sequencing, WD − D0","[4]; WD − D0, Table VI",0.00 log2
same,"Modulation (ratio of the level of intensity of expression in log2 in two stages of differentiation) measured by high-throughput sequencing, WD − FC","[4]; WD − FC, Table VI",0.00 log2
same,Level of intensity of expression in log2 At the differentiated stage (WD) measured in HTS,"[4]; healthy human airway epithelial tissue, stage WD",5.43 log2
same,"Level of intensity of expression in log2 measured by high-throughput sequencing, D0","[4]; stage D0, Table VI",0.01 log2
same,"Level of intensity of expression in log2 measured by high-throughput sequencing, D7","[4]; stage D7, Table VI",0.15 log2
same,"Level of intensity of expression in log2 measured by high-throughput sequencing, FC","[4]; stage FC, Table VI",0.01 log2
same,"Level of intensity of expression in log2 measured by high-throughput sequencing, WD","[4]; stage WD, Table VI",0.01 log2
same,"Modulation (ratio of the level of intensity of expression in log2 in two stages of differentiation) measured with the Agilent chips, D7 − D0","[5]; D7 − D0, Table VI",1.40 log2
same,"Modulation (ratio of the level of intensity of expression in log2 at two stages of differentiation), FC − D7","[5]; FC − D7, Agilent miRNA chips, Table V",−0.63 log2
same,"Modulation (ratio of the level of intensity of expression in log2 in two stages of differentiation) measured with the Agilent chips, FC − D7","[5]; FC − D7, Table VI",−0.63 log2
same,"Modulation (ratio of the level of intensity of expression in log2 in two stages of differentiation) measured with the Agilent chips, WD − D0","[5]; WD − D0, Table VI",0.70 log2
same,"Modulation (ratio of the level of intensity of expression in log2 at two stages of differentiation), WD − FC","[5]; WD − FC, Agilent miRNA chips, Table V",−0.07 log2
same,"Modulation (ratio of the level of intensity of expression in log2 in two stages of differentiation) measured with the Agilent chips, WD − FC","[5]; WD − FC, Table VI",−0.07 log2
same,"Level of intensity of expression in log2 measured with the Agilent chips, D0","[5]; stage D0, Table VI",6.64 log2
same,"Level of intensity of expression in log2 measured with the Agilent chips, D7","[5]; stage D7, Table VI",8.04 log2
same,"Level of intensity of expression in log2 measured with the Agilent chips, FC","[5]; stage FC, Table VI",7.41 log2
same,"Level of intensity of expression in log2 measured with the Agilent chips, WD","[5]; stage WD, Table VI",7.34 log2
